In brackets after ≈: the same amount, converted by molar mass. Activity calls are given as the source filed them. The rule behind the calls is not given here.
Key:
[1] = tested on: Micrococcus luteus; experiment: Antibacterial activity against Micrococcus luteus MTCC 1538 assessed as growth inhibition after 24 hr by tube dilution method; format: functional; conditions: MTCC 1538, 24 h
[2] = tested on: Pseudomonas fluorescens; experiment: Antibacterial activity against Pseudomonas fluorescens MTCC 2421 assessed as growth inhibition after 24 hr by tube dilution method; format: functional; conditions: MTCC 2421, 24 h
[3] = tested on: Escherichia coli; experiment: Antibacterial activity against Escherichia coli MTCC 1573 assessed as growth inhibition after 24 hr by tube dilution method; format: functional; conditions: MTCC 1573, 24 h
[4] = tested on: Penicillium chrysogenum; experiment: Antifungal activity against Penicillium chrysogenum MTCC 161 assessed as growth inhibition at 1250 ug/mL after 48 hr by agar diffusion method; format: functional; conditions: MTCC 161, 48 h, read-out: DIZ
[5] = tested on: Bacillus subtilis; experiment: Antibacterial activity against Bacillus subtilis MTCC 441 assessed as growth inhibition at 1250 ug/mL after 48 hr by agar diffusion method; format: functional; conditions: MTCC 441, 48 h, read-out: DIZ
[6] = tested on: Bacillus subtilis; experiment: Antibacterial activity against Bacillus subtilis MTCC 441 assessed as growth inhibition at 250 ug/mL after 48 hr by agar diffusion method; format: functional; conditions: MTCC 441, 48 h, read-out: DIZ
[7] = tested on: Penicillium chrysogenum; experiment: Antifungal activity against Penicillium chrysogenum MTCC 161 assessed as growth inhibition at 1000 ug/mL after 48 hr by agar diffusion method; format: functional; conditions: MTCC 161, 48 h, read-out: DIZ
[8] = tested on: Penicillium chrysogenum; experiment: Antifungal activity against Penicillium chrysogenum MTCC 161 assessed as growth inhibition at 100 ug/mL after 48 hr by agar diffusion method; format: functional, organism-based
[9] = tested on: Aspergillus niger; experiment: Antifungal activity against Aspergillus niger MTCC 2546 assessed as growth inhibition at 1250 ug/mL after 48 hr by agar diffusion method; format: functional; conditions: MTCC 2546, 48 h, read-out: DIZ
[10] = tested on: Aspergillus niger; experiment: Antifungal activity against Aspergillus niger MTCC 2546 assessed as growth inhibition at 100 ug/mL after 48 hr by agar diffusion method; format: functional, organism-based
[11] = tested on: Pseudomonas fluorescens; experiment: Antibacterial activity against Pseudomonas fluorescens MTCC 2421 assessed as growth inhibition at 1250 ug/mL after 48 hr by agar diffusion method; format: functional; conditions: MTCC 2421, 48 h, read-out: DIZ
[12] = tested on: Pseudomonas fluorescens; experiment: Antibacterial activity against Pseudomonas fluorescens MTCC 2421 assessed as growth inhibition at 1000 ug/mL after 48 hr by agar diffusion method; format: functional; conditions: MTCC 2421, 48 h, read-out: DIZ
[13] = tested on: Pseudomonas fluorescens; experiment: Antibacterial activity against Pseudomonas fluorescens MTCC 2421 assessed as growth inhibition at 750 ug/mL after 48 hr by agar diffusion method; format: functional; conditions: MTCC 2421, 48 h, read-out: DIZ
[14] = tested on: Pseudomonas fluorescens; experiment: Antibacterial activity against Pseudomonas fluorescens MTCC 2421 assessed as growth inhibition at 500 ug/mL after 48 hr by agar diffusion method; format: functional; conditions: MTCC 2421, 48 h, read-out: DIZ
[15] = tested on: Pseudomonas fluorescens; experiment: Antibacterial activity against Pseudomonas fluorescens MTCC 2421 assessed as growth inhibition at 250 ug/mL after 48 hr by agar diffusion method; format: functional; conditions: MTCC 2421, 48 h, read-out: DIZ
[16] = tested on: Micrococcus luteus; experiment: Antibacterial activity against Micrococcus luteus MTCC 1538 assessed as growth inhibition at 250 ug/mL after 48 hr by agar diffusion method; format: functional
[17] = tested on: Micrococcus luteus; experiment: Antibacterial activity against Micrococcus luteus MTCC 1538 assessed as growth inhibition at 100 ug/mL after 48 hr by agar diffusion method; format: functional
[18] = tested on: Bacillus pumilus; experiment: Antibacterial activity against Bacillus pumilus MTCC 1456 assessed as growth inhibition at 1250 ug/mL after 48 hr by agar diffusion method; format: functional; conditions: MTCC 1456, 48 h, read-out: DIZ
[19] = tested on: Bacillus pumilus; experiment: Antibacterial activity against Bacillus pumilus MTCC 1456 assessed as growth inhibition at 1000 ug/mL after 48 hr by agar diffusion method; format: functional; conditions: MTCC 1456, 48 h, read-out: DIZ
[20] = tested on: Bacillus pumilus; experiment: Antibacterial activity against Bacillus pumilus MTCC 1456 assessed as growth inhibition at 750 ug/mL after 48 hr by agar diffusion method; format: functional; conditions: MTCC 1456, 48 h, read-out: DIZ
[21] = tested on: Bacillus pumilus; experiment: Antibacterial activity against Bacillus pumilus MTCC 1456 assessed as growth inhibition at 500 ug/mL after 48 hr by agar diffusion method; format: functional; conditions: MTCC 1456, 48 h, read-out: DIZ
[22] = tested on: Bacillus pumilus; experiment: Antibacterial activity against Bacillus pumilus MTCC 1456 assessed as growth inhibition at 250 ug/mL after 48 hr by agar diffusion method; format: functional; conditions: MTCC 1456, 48 h, read-out: DIZ
[23] = tested on: Bacillus pumilus; experiment: Antibacterial activity against Bacillus pumilus MTCC 1456 assessed as growth inhibition at 100 ug/mL after 48 hr by agar diffusion method; format: functional; conditions: MTCC 1456, 48 h, read-out: DIZ
[24] = tested on: Staphylococcus aureus; experiment: Antibacterial activity against Staphylococcus aureus MTCC 1430 assessed as growth inhibition at 1250 ug/mL after 48 hr by agar diffusion method; format: functional; conditions: MTCC 1430, 48 h, read-out: DIZ
[25] = tested on: Staphylococcus aureus; experiment: Antibacterial activity against Staphylococcus aureus MTCC 1430 assessed as growth inhibition at 750 ug/mL after 48 hr by agar diffusion method; format: functional; conditions: MTCC 1430, 48 h, read-out: DIZ
[26] = tested on: Staphylococcus aureus; experiment: Antibacterial activity against Staphylococcus aureus MTCC 1430 assessed as growth inhibition at 500 ug/mL after 48 hr by agar diffusion method; format: functional; conditions: MTCC 1430, 48 h, read-out: DIZ
[27] = tested on: Staphylococcus aureus; experiment: Antibacterial activity against Staphylococcus aureus MTCC 1430 assessed as growth inhibition at 100 ug/mL after 48 hr by agar diffusion method; format: functional, organism-based
[28] = tested on: Pseudomonas aeruginosa; experiment: Antibacterial activity against Pseudomonas aeruginosa MTCC 424 assessed as growth inhibition at 250 ug/mL after 48 hr by agar diffusion method; format: functional; conditions: MTCC 424, 48 h, read-out: DIZ
[29] = tested on: Micrococcus luteus; experiment: Antibacterial activity against Micrococcus luteus MTCC 1538 assessed as growth inhibition at 1000 ug/mL after 48 hr by agar diffusion method; format: functional; conditions: MTCC 1538, 48 h, read-out: DIZ
[30] = tested on: Micrococcus luteus; experiment: Antibacterial activity against Micrococcus luteus MTCC 1538 assessed as growth inhibition at 750 ug/mL after 48 hr by agar diffusion method; format: functional; conditions: MTCC 1538, 48 h, read-out: DIZ
[31] = tested on: Pseudomonas fluorescens; experiment: Antibacterial activity against Pseudomonas fluorescens MTCC 2421 assessed as growth inhibition at 100 ug/mL after 48 hr by agar diffusion method; format: functional
[32] = tested on: Escherichia coli; experiment: Antibacterial activity against Escherichia coli MTCC 1573 assessed as growth inhibition at 1250 ug/mL after 48 hr by agar diffusion method; format: functional; conditions: MTCC 1573, 48 h, read-out: DIZ
[33] = tested on: Escherichia coli; experiment: Antibacterial activity against Escherichia coli MTCC 1573 assessed as growth inhibition at 1000 ug/mL after 48 hr by agar diffusion method; format: functional; conditions: MTCC 1573, 48 h, read-out: DIZ
[34] = tested on: Escherichia coli; experiment: Antibacterial activity against Escherichia coli MTCC 1573 assessed as growth inhibition at 750 ug/mL after 48 hr by agar diffusion method; format: functional; conditions: MTCC 1573, 48 h, read-out: DIZ
[35] = tested on: Escherichia coli; experiment: Antibacterial activity against Escherichia coli MTCC 1573 assessed as growth inhibition at 250 ug/mL after 48 hr by agar diffusion method; format: functional; conditions: MTCC 1573, 48 h, read-out: DIZ
[36] = tested on: Escherichia coli; experiment: Antibacterial activity against Escherichia coli MTCC 1573 assessed as growth inhibition at 100 ug/mL after 48 hr by agar diffusion method; format: functional; conditions: MTCC 1573, 48 h, read-out: DIZ
[37] = tested on: Pseudomonas aeruginosa; experiment: Antibacterial activity against Pseudomonas aeruginosa MTCC 424 assessed as growth inhibition at 1250 ug/mL after 48 hr by agar diffusion method; format: functional; conditions: MTCC 424, 48 h, read-out: DIZ
[38] = tested on: Pseudomonas aeruginosa; experiment: Antibacterial activity against Pseudomonas aeruginosa MTCC 424 assessed as growth inhibition at 1000 ug/mL after 48 hr by agar diffusion method; format: functional; conditions: MTCC 424, 48 h, read-out: DIZ
[39] = tested on: Pseudomonas aeruginosa; experiment: Antibacterial activity against Pseudomonas aeruginosa MTCC 424 assessed as growth inhibition at 750 ug/mL after 48 hr by agar diffusion method; format: functional; conditions: MTCC 424, 48 h, read-out: DIZ

MIC [1] [µg/mL]	MIC [2] [µg/mL]	MIC [3] [µg/mL]	Structure (SMILES)	zone of inhibition at 1250 µg/mL [4] [mm]	zone of inhibition at 1250 µg/mL [5] [mm]	zone of inhibition at 250 µg/mL [6] [mm]	zone of inhibition at 1000 µg/mL [7] [mm]	growth inhibition (GI) [8]	zone of inhibition at 1250 µg/mL [9] [mm]	growth inhibition (GI) [10]	zone of inhibition at 1250 µg/mL [11] [mm]	zone of inhibition at 1000 µg/mL [12] [mm]	zone of inhibition at 750 µg/mL [13] [mm]	zone of inhibition at 500 µg/mL [14] [mm]	zone of inhibition at 250 µg/mL [15] [mm]	zone of inhibition at 1250 µg/mL [18] [mm]	zone of inhibition at 1000 µg/mL [19] [mm]	zone of inhibition at 750 µg/mL [20] [mm]	zone of inhibition at 500 µg/mL [21] [mm]	zone of inhibition at 250 µg/mL [22] [mm]	further results
150 (≈ 445 µM)	150 (≈ 445 µM)	30 (≈ 89.1 µM)	CC1SCC(=O)N1c1nnc2c3cc(Cl)ccc3nc-2s1 (stereo not drawn)	20	21	10	18	inactive	17	inactive	19	15	12	8	7	18	15	13	12	10	growth inhibition (GI) [16]: inactive; growth inhibition (GI) [17]: inactive; zone of inhibition at 100 µg/mL [23]: 8 mm; zone of inhibition at 1250 µg/mL [24]: 19 mm; zone of inhibition at 750 µg/mL [25]: 13 mm; zone of inhibition at 500 µg/mL [26]: 10 mm; growth inhibition (GI) [27]: inactive; zone of inhibition at 250 µg/mL [28]: 9 mm; zone of inhibition at 1000 µg/mL [29]: 17 mm; zone of inhibition at 750 µg/mL [30]: 14 mm; growth inhibition (GI) [31]: inactive; zone of inhibition at 1250 µg/mL [32]: 21 mm; zone of inhibition at 1000 µg/mL [33]: 19 mm; zone of inhibition at 750 µg/mL [34]: 17 mm; zone of inhibition at 250 µg/mL [35]: 11 mm; zone of inhibition at 100 µg/mL [36]: 9 mm; zone of inhibition at 1250 µg/mL [37]: 20 mm; zone of inhibition at 1000 µg/mL [38]: 18 mm; zone of inhibition at 750 µg/mL [39]: 17 mm
40 (≈ 132 µM)	30 (≈ 99.2 µM)	40 (≈ 132 µM)	CC1SCC(=O)N1c1nnc2c3ccccc3nc-2s1 (stereo not drawn)	17	22	13	15	inactive	17	inactive	24	21	17	13	10	25	22	18	12	9	zone of inhibition at 250 µg/mL ([16]; MTCC 1538, 48 h, read-out: DIZ): 10 mm; zone of inhibition at 100 µg/mL ([17]; MTCC 1538, 48 h, read-out: DIZ): 8 mm; zone of inhibition at 100 µg/mL [23]: 7 mm; zone of inhibition at 1250 µg/mL [24]: 17 mm; zone of inhibition at 750 µg/mL [25]: 11 mm; zone of inhibition at 500 µg/mL [26]: 8 mm; growth inhibition (GI) [27]: inactive; zone of inhibition at 250 µg/mL [28]: 11 mm; zone of inhibition at 1000 µg/mL [29]: 17 mm; zone of inhibition at 750 µg/mL [30]: 14 mm; zone of inhibition at 100 µg/mL ([31]; MTCC 2421, 48 h, read-out: DIZ): 8 mm; zone of inhibition at 1250 µg/mL [32]: 20 mm; zone of inhibition at 1000 µg/mL [33]: 18 mm; zone of inhibition at 750 µg/mL [34]: 15 mm; zone of inhibition at 250 µg/mL [35]: 10 mm; zone of inhibition at 100 µg/mL [36]: 7 mm; zone of inhibition at 1250 µg/mL [37]: 24 mm; zone of inhibition at 1000 µg/mL [38]: 20 mm; zone of inhibition at 750 µg/mL [39]: 15 mm
